Results reported in EPA's ToxValDB 9.5.
Several values for one entry are separate records, joined by “and”; a condition that tells them apart may be missing. Equal values may be shown once.

Tests used:
[1] = test system: Rattus norvegicus; settings: chronic; duration: 104 weeks; inhalation; M/F; Fischer 344; renal
[2] = test system: Rattus norvegicus
[3] = test system: Oryctolagus sp.; settings: developmental, M/F
[4] = test system: Rattus norvegicus; settings: subchronic; duration: 90 days; oral; gavage; M/F; Wistar; Clinical Observation: Salivation Discolored urine + Functional Observational Battery: Decreased landing foot-splay + Body Weight Changes: …
[5] = test system: Mus musculus; settings: uterotrophic; duration: 3 days; injection; intraperitoneal; Active
[6] = test system: Cavia porcellus; settings: acute, Guinea Pig
[7] = test system: Rattus norvegicus; settings: for LC50 / LD50: acute
[8] = test system: Mus musculus; settings: for LC50: acute
[9] = test system: Oryctolagus sp.; settings: dermal, New Zealand
[10] = test system: Canidae; settings: acute; oral; gavage; Dog Other
[11] = test system: Canidae; settings: chronic, duration: 2 years, oral, diet, M/F, Dog Other
[12] = test system: Canidae; settings: chronic; duration: 2 years; oral; diet; Dog Other; Kidney: Increased weight + Liver: Increased weight
[13] = chronic, oral, F, liver and kidney toxicity
[14] = reproduction developmental, duration: 10 days, oral, gavage, F, Crl:CD(SD)
[15] = reproduction developmental, duration: 28 days, oral, diet
[16] = subchronic, duration: 90 days, oral, diet, Sprague-Dawley
[17] = subchronic, duration: 90 days, oral, diet, B6C3F1
[18] = reproduction developmental, duration: 21 days
[19] = chronic, duration: 118 weeks, oral, diet, F, Sprague-Dawley
[20] = chronic, duration: 118 weeks, oral, diet, M, Sprague-Dawley
[21] = developmental, duration: 20 days, oral, drinking water, Osborne-Mendel
[22] = reproduction developmental, duration: 27 weeks, oral, diet, Charles River Ceesarean albino, generation: F0
[23] = reproduction developmental, duration: 118 weeks, oral, diet, F, Sprague-Dawley
[24] = reproduction developmental, duration: 118 weeks, oral, diet, M, Sprague-Dawley
[25] = reproduction developmental, oral, diet, Crl:CD(SD)
[26] = oral, Reduced body weight gain (maternal), increased resorption, reduced body weight (fetal), delayed ossification
[27] = reduced body weight gain, increased liver and kidney weight, and rbc cholinesterase inhibition

CCc1ccccc1 [Ethylbenzene]
LOAEL [1]: 326 mg/m3
LOAEL [2, 13]: 408 mg/kg-day
NOEL [2, 13]: 97.1 mg/kg-day and 136 mg/kg-day
LOAEL ([2]; developmental, inhalation, M/F, developmental toxicity): 4340 mg/m3
NOAEL ([3]; inhalation, developmental toxicity): 434 mg/m3
NOAEL [4]: 75 mg/kg-day

CC(C)(c1cc(Br)c(O)c(Br)c1)c1cc(Br)c(O)c(Br)c1 [3,3',5,5'-Tetrabromobisphenol A]
LEL [5]: 20 mg/kg-day
LC50 ([6]; inhalation): > 50 µg/mL
LC50 ([7]; inhalation): > 28200 mg/m3
LC50 ([7]; inhalation, Wistar): > 50 µg/mL
LD50 ([7]; oral, gavage, Sprague-Dawley): > 5000 mg/kg
NOAEL ([7]; developmental, duration: 19 days, oral, gavage): 1000 mg/kg-day
LOAEL ([7]; developmental, duration: 19 days, oral, gavage, Wistar): > 2500 mg/kg-day
NOAEL ([7]; developmental, duration: 20 days, oral, Wistar): 2500 mg/kg-day
LOAEL [7, 14]: 5000 mg/kg-day
NOAEL [7, 14]: 3000 mg/kg-day
LOAEL ([7]; reproduction developmental, duration: 14 days, inhalation): 6 mg/L
LOAEL ([7]; reproduction developmental, duration: 19 days, oral, gavage, F): > 1000 mg/kg-day
NOAEL ([7]; reproduction developmental, duration: 20 days, oral, gavage, F, Sprague-Dawley): 1000 mg/kg-day
LOAEC [7, 15]: > 1000 ppm
NOAEL [7, 15]: ≥ 1000 ppm
LOAEL ([7]; reproduction developmental, oral, gavage, Sprague-Dawley, generation: F0): 1000 mg/kg-day
LOAEL [7, 16]: > 100 mg/kg-day
NOAEL [7, 16]: > 100 mg/kg-day
NOAEL ([7]; subchronic, duration: 90 days, oral, gavage, Sprague-Dawley): 1000 mg/kg-day
LC50 ([8]; inhalation, NMDI): > 50 µg/mL
LOAEL [8, 17]: 3070 mg/kg-day
NOAEL [8, 17]: 965 mg/kg-day
LD50 ([9]; acute): > 2000 mg/kg
LOAEL [9, 18]: > 2500 mg/kg-day
NOAEL [9, 18]: 2500 mg/kg-day

CCCCOCCOCCOCOCCOCCOCCCC [Bis(butoxyethoxyethoxy)methane]
LC50 ([6]; Inhalation): > 200 µg/mL
LC50 ([7]; Inhalation, Wistar): > 200 µg/mL
LD50 ([7]; dermal, occlusive, Sprague-Dawley): > 2000 mg/kg
LD50 ([7]; oral, Sprague-Dawley): > 2000 mg/kg
NOAEL ([7]; developmental, duration: 9 weeks, oral, gavage, Sprague-Dawley): 100 mg/kg-day
NOAEL ([7]; reproduction developmental, duration: 9 weeks, oral, gavage, F, Sprague-Dawley): 100 mg/kg-day
NOAEL ([7]; reproduction developmental, duration: 9 weeks, oral, gavage, Sprague-Dawley): 100 mg/kg-day
NOAEL ([7]; reproduction developmental, duration: 9 weeks, oral, gavage, Sprague-Dawley, generation: F0): 100 mg/kg-day
NOAEL ([7]; reproduction developmental, duration: 9 weeks, oral, gavage, Sprague-Dawley, generation: F1): 100 mg/kg-day
LC50 ([8]; Inhalation, Swiss-Webster): > 200 µg/mL

COc1cc(S(=O)(=O)[O-])c(C)cc1N=Nc1c(O)ccc2cc(S(=O)(=O)[O-])ccc12.[Na+].[Na+]
LD50 ([7]; oral, gavage, Sprague-Dawley): > 10000 mg/kg
LOAEL [7, 19]: 3600 mg/kg-day
NOAEL [7, 19]: 901 mg/kg-day
LOAEL [7, 20]: > 2830 mg/kg-day
NOAEL [7, 20]: 2830 mg/kg-day
NOAEL ([7]; developmental, duration: 19 days, oral, gavage, Osborne-Mendel): 1000 mg/kg-day
LOAEL [7, 21]: 546 mg/kg-day
NOAEL [7, 21]: 274 mg/kg-day
LOAEL [7, 22]: 51900 ppm
NOAEL [7, 22]: 13900 ppm
LOAEL [7, 23]: 3600 mg/kg-day
NOAEL [7, 23]: 901 mg/kg-day
LOAEL [7, 24]: > 2830 mg/kg-day
NOAEL [7, 24]: 2830 mg/kg-day
NOAEL ([7]; reproduction developmental, duration: 19 days, oral, gavage, F, Osborne-Mendel): 1000 mg/kg-day
NOAEL ([7]; reproduction developmental, duration: 20 days, oral, drinking water, F, Osborne-Mendel): 939 mg/kg-day
LOAEL ([7]; reproduction developmental, duration: 20 days, oral, drinking water, Osborne-Mendel, generation: F1): 546 mg/kg-day
LOAEL [7, 25]: 51900 ppm
NOAEL [7, 25]: 13900 ppm
NOAEL (% diet) ([8]; chronic, duration: 104 weeks, oral, diet, CD1): > 5.19
LD50 [10]: > 5000 mg/kg

C#CCOS(=O)OC1CCCCC1Oc1ccc(C(C)(C)C)cc1 (stereo not drawn) [Propargite]
LEL [3, 26]: 6 mg/kg-day
NOEL [3, 26]: 2 mg/kg-day
NOEL ([11]; No adverse effects observed at the HDT): 22.5 mg/kg-day

COP(=O)(OC)O/C(=C/Cl)c1cc(Cl)c(Cl)cc1Cl [Tetrachlorovinphos]
NOEL [12]: 3.1 mg/kg-day
LEL [11, 27]: 50 mg/kg-day
NOEL [11, 27]: 3.13 mg/kg-day
